Biological target: h5-HT2A receptor (Homo sapiens, UniProt P28223)
Details: data not shown

h5-HT2A receptor, sequence (P28223 whole entry): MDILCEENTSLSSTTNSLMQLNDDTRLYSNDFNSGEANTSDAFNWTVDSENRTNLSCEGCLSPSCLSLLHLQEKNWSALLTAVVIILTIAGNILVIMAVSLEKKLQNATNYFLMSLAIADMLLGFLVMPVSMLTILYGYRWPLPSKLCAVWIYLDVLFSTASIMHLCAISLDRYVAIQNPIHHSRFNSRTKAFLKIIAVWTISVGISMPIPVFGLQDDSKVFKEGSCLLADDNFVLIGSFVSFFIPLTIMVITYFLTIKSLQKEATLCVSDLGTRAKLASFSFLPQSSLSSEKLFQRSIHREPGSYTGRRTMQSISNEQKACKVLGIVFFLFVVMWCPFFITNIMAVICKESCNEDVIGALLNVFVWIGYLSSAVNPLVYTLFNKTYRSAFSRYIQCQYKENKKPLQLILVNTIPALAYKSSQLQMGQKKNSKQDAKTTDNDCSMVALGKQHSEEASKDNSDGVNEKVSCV

NCCc1c[nH]c2ccc(O)cc12 [5-HT, 5-hydroxy-tryptamine]
h5-HT2A agonist activity, inositol monophosphate: full agonists with potencies in the low nanomolar range

CCN(CC)C(=O)[C@@H]1C=C2c3cccc4[nH]cc(c34)C[C@H]2N(C)C1 [LSD, lysergic acid diethylamide]
h5-HT2A agonist activity, inositol monophosphate: full agonists with potencies in the low nanomolar range

Source: PMC3692398 (Biochemical pharmacology, 2013)
